Test results from article PMC10268488, “Indole-carbohydrazide linked phenoxy-1,2,3-triazole-N-phenylacetamide derivatives as potent α-glucosidase inhibitors: design, synthesis, in vitro α-glucosidase inhibition, and computational studies” (BMC Chemistry, 2023).
Where two headings read alike, the source gives them in different places.

Key:
yeast α-glucosidase [1] = molecular target: T1, yeast α-glucosidase (Saccharomyces cerevisiae, UniProt P53341); assay: biochemical; format: biochemical; details: for diminished inhibitory activity relative to compound 11d: replacement of methoxy substituent of 11d
T1 sequence (P53341 whole entry): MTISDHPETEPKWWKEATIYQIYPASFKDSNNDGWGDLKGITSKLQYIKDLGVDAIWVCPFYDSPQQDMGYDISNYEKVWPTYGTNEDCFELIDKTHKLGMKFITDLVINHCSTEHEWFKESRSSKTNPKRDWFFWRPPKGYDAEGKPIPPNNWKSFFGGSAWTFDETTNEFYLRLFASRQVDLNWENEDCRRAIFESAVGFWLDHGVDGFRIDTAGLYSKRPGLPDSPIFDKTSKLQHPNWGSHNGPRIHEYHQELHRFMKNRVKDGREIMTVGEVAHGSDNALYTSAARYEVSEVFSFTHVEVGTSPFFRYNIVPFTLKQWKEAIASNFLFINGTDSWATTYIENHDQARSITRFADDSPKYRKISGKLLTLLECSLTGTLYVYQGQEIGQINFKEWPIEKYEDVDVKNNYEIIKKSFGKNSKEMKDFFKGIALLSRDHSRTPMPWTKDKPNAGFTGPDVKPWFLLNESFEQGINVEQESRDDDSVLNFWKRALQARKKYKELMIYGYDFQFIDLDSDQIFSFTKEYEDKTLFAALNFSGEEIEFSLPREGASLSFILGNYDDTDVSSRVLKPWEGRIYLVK

yeast α-glucosidase [2] = molecular target: T1, yeast α-glucosidase; assay: Kinetic study of α-glucosidase inhibition (Lineweaver–Burk plots); format: biochemical; details: for mechanism of α-glucosidase inhibition: Lineweaver–Burk plots, both Vmax and Km decreased; for Ki: Lineweaver–Burk secondary plot, substrate p-nitrophenyl-glucopyranoside 1–4 mM
Excerpt: Then, the Lineweaver-Burke plots were depicted using by the reciprocal of velocity and substrate concentration (Fig. 5).

[3] = test system: normal human dermal fibroblast (HDF) cell line; assay: In vitro cytotoxicity assay; format: cell-based; details: HDF cells, 50 μM concentration
Description: To assess of the cytotoxic effects of the new synthesized compounds, cytotoxicity of compounds 11d and 11n as the representative compounds was evaluated against the normal human dermal fibroblast (HDF) cell line.
Evaluation of cytotoxic effects of the synthesized compounds 11d and 11n was performed exactly based on our previous report.

[4] = read-out: IC50 (anti-α-glucosidase activity)

Structure (SMILES)	IC50 (yeast α-glucosidase [1]; [4])	melting point	IC50 (yeast α-glucosidase [1])	other results
COc1cc(/C=N/NC(=O)c2cc3ccccc3[nH]2)ccc1OCc1cn(CC(=O)Nc2ccc(Cl)cc2)nn1 [Compound 11k, (E)-2-(4-((4-((2-(1H-indole-2-carbonyl)hydrazono)methyl)-2-methoxyphenoxy)methyl)-1H-1,2,3-triazol-1-yl)-N-(4-chlorophenyl)acetamide]	31.56 ± 0.12 µM	184 to 186 °C		
Cc1ccccc1NC(=O)Cn1cc(COc2ccc(/C=N/NC(=O)c3cc4ccccc4[nH]3)cc2)nn1 [Compound 11b, (E)-2-(4-((4-((2-(1H-indole-2-carbonyl)hydrazono)methyl)phenoxy)methyl)-1H-1,2,3-triazol-1-yl)-N-(o-tolyl)acetamide]	8.88 ± 0.07 µM			mechanism of α-glucosidase inhibition (yeast α-glucosidase [2]): uncompetitive inhibitors; Ki (yeast α-glucosidase [2]): 8.5 µM
COc1cc(/C=N/NC(=O)c2cc3ccccc3[nH]2)ccc1OCc1cn(CC(=O)Nc2cc(Cl)cc(Cl)c2)nn1 [Compound 11m, (E)-2-(4-((4-((2-(1H-indole-2-carbonyl)hydrazono)methyl)-2-methoxyphenoxy)methyl)-1H-1,2,3-triazol-1-yl)-N-(3,5-dichlorophenyl)acetamide]		247 to 249 °C	14.2 ± 0.21 µM	
COc1cc(/C=N/NC(=O)c2cc3ccccc3[nH]2)ccc1OCc1cn(CC(=O)Nc2cccc(Cl)c2Cl)nn1 [Compound 11l, (E)-2-(4-((4-((2-(1H-indole-2-carbonyl)hydrazono)methyl)-2-methoxyphenoxy)methyl)-1H-1,2,3-triazol-1-yl)-N-(2,3-dichlorophenyl)acetamide]			18.2 ± 0.81 µM	
O=C(Cn1cc(COc2ccc(/C=N/NC(=O)c3cc4ccccc4[nH]3)cc2)nn1)Nc1ccccc1Cl [Compound 11e, (E)-2-(4-((4-((2-(1H-indole-2-carbonyl)hydrazono)methyl)phenoxy)methyl)-1H-1,2,3-triazol-1-yl)-N-(2-chlorophenyl)acetamide]		> 250 °C	26.97 ± 0.25 µM	
COc1ccc(NC(=O)Cn2cc(COc3ccc(/C=N/NC(=O)c4cc5ccccc5[nH]4)cc3)nn2)cc1 [Compound 11d, (E)-2-(4-((4-((2-(1H-indole-2-carbonyl)hydrazono)methyl)phenoxy)methyl)-1H-1,2,3-triazol-1-yl)-N-(4-methoxyphenyl)acetamide]	6.31 ± 0.03 µM			times more potent than acarbose (yeast α-glucosidase [1]; ratio of IC50 values vs acarbose): 118.8 times; mechanism of α-glucosidase inhibition (yeast α-glucosidase [2]): uncompetitive inhibitors; Ki (yeast α-glucosidase [2]): 6.3 µM; cytotoxicity on normal cell line [3]: non-cytotoxic
COc1cc(/C=N/NC(=O)c2cc3ccccc3[nH]2)ccc1OCc1cn(CC(=O)Nc2ccc(Br)cc2)nn1 [Compound 11n, (E)-2-(4-((4-((2-(1H-indole-2-carbonyl)hydrazono)methyl)-2-methoxyphenoxy)methyl)-1H-1,2,3-triazol-1-yl)-N-(4-bromophenyl)acetamide]	8.3 ± 0.16 µM			mechanism of α-glucosidase inhibition (yeast α-glucosidase [2]): uncompetitive inhibitors; Ki (yeast α-glucosidase [2]): 8.3 µM; cytotoxicity on normal cell line [3]: non-cytotoxic
O=C(Cn1cc(COc2ccc(/C=N/NC(=O)c3cc4ccccc4[nH]3)cc2)nn1)Nc1ccc(Br)cc1 [Compound 11g, (E)-2-(4-((4-((2-(1H-indole-2-carbonyl)hydrazono)methyl)phenoxy)methyl)-1H-1,2,3-triazol-1-yl)-N-(4-bromophenyl)acetamide]	49.89 ± 0.09 µM			diminished inhibitory activity relative to compound 11d (yeast α-glucosidase [1]): 8 folds
COc1cc(/C=N/NC(=O)c2cc3ccccc3[nH]2)ccc1OCc1cn(CC(=O)Nc2ccccc2)nn1 [Compound 11i, (E)-2-(4-((4-((2-(1H-indole-2-carbonyl)hydrazono)methyl)-2-methoxyphenoxy)methyl)-1H-1,2,3-triazol-1-yl)-N-phenylacetamide]			11.3 ± 0.15 µM	
COc1ccc(NC(=O)Cn2cc(COc3ccc(/C=N/NC(=O)c4cc5ccccc5[nH]4)cc3OC)nn2)cc1 [Compound 11j, (E)-2-(4-((4-((2-(1H-indole-2-carbonyl)hydrazono)methyl)-2-methoxyphenoxy)methyl)-1H-1,2,3-triazol-1-yl)-N-(4-methoxyphenyl)acetamide]	24.19 ± 0.1 µM			
O=C(Cn1cc(COc2ccc(/C=N/NC(=O)c3cc4ccccc4[nH]3)cc2)nn1)Nc1ccc(Cl)cc1 [Compound 11f, (E)-2-(4-((4-((2-(1H-indole-2-carbonyl)hydrazono)methyl)phenoxy)methyl)-1H-1,2,3-triazol-1-yl)-N-(4-chlorophenyl)acetamide]	9.53 ± 0.12 µM	174 to 176 °C		diminished inhibitory activity relative to compound 11d (yeast α-glucosidase [1]): 1.5 folds
O=C(Cn1cc(COc2ccc(/C=N/NC(=O)c3cc4ccccc4[nH]3)cc2)nn1)Nc1ccccc1 [Compound 11a, (E)-2-(4-((4-((2-(1H-indole-2-carbonyl)hydrazono)methyl)phenoxy)methyl)-1H-1,2,3-triazol-1-yl)-N-phenylacetamide]	15.2 ± 0.18 µM	194 to 196 °C		
COc1cc(/C=N/NC(=O)c2cc3ccccc3[nH]2)ccc1OCc1cn(CC(=O)Nc2cccc([N+](=O)[O-])c2Cl)nn1 [Compound 11o, (E)-2-(4-((4-((2-(1H-indole-2-carbonyl)hydrazono)methyl)-2-methoxyphenoxy)methyl)-1H-1,2,3-triazol-1-yl)-N-(2-chloro-3-nitrophenyl)acetamide]		> 250 °C	12.67 ± 0.05 µM	
Cc1cc(NC(=O)Cn2cc(COc3ccc(/C=N/NC(=O)c4cc5ccccc5[nH]4)cc3)nn2)ccc1[N+](=O)[O-] [Compound 11h, (E)-2-(4-((4-((2-(1H-indole-2-carbonyl)hydrazono)methyl)phenoxy)methyl)-1H-1,2,3-triazol-1-yl)-N-(3-methyl-4-nitrophenyl)acetamide]		200 to 202 °C	35.11 ± 0.07 µM	
Cc1ccc(NC(=O)Cn2cc(COc3ccc(/C=N/NC(=O)c4cc5ccccc5[nH]4)cc3)nn2)cc1 [Compound 11c, (E)-2-(4-((4-((2-(1H-indole-2-carbonyl)hydrazono)methyl)phenoxy)methyl)-1H-1,2,3-triazol-1-yl)-N-(p-tolyl)acetamide]	19.12 ± 0.08 µM			diminished inhibitory activity relative to compound 11d (yeast α-glucosidase [1]): 3 folds
